Laboratory results from article PMC7807051, “Modulation of cAMP metabolism for CFTR potentiation in human airway epithelial cells” (Scientific Reports, 2021).

Key:
CFTR = assay: In vitro CFTR membrane potential assay in Calu-3 cells; assay type: cell-based, human; conditions: Calu-3
Method: An in vitro CFTR membrane potential assay was performed on Calu-3 cells and primary human bronchial epithelial cells, from two independent donors, cultured at 37 °C as previously described. All human samples were collected from consented individuals under ethics approval granted by Hamilton Integrated Research Ethics Board (Project Number 5099-T).
Calu-3 cells were grown for 21 days on 96-well plates and primary HBECs were grown for 14 days under air–liquid interface conditions on collagen-coated (Sigma-Aldrich) 6.5 mm Transwell Inserts (Corning). All cells were washed with HBSS prior to experimental conditions. After washing with HBSS, cells were loaded with BLUE Membrane Potential Dye (Molecular Devices, #R8042) dissolved in 37 °C chloride-free buffer (NMDG Gluconate Buffer – 150 mM NMDG-gluconate, 3 mM KCl, 10 mM HEPES, pH 7.35, 300 mOsm). Immediately after dye loading, CFTR activity measurements were taken. CFTR activity measurements are fluorescent readouts for detecting ion channel activity. CFTR inhibition was performed with CFTRinh-172 (10 μM) for all experiments to attribute changes in fluorescence as CFTR channel activity. This assay has been validated using proof of concept studies where results obtained from this assay were able to recapitulate findings obtained from direct measurements of ion channel activity using Ussing chambers. At the end of this assay, raw data was exported for statistical analysis.
For Calu-3 cells, measurements were taken during baseline (40 min), cAMP elevation (30 min), and CFTR inhibition (20 min). cAMP elevation was performed using forskolin or isoproterenol (0.0005–50 μM). For assays with ABCC4 or PDE-4 inhibitors, a pre-incubation with the inhibitors (30 min) in the plate reader was performed prior to cAMP elevation. CFTR modulator VX-770 was used at 1 μM. CFTR activity was determined by dividing a single membrane potential peak measurement after the ABCC4 or PDE-4 inhibition and cAMP elevation additions to the stabilized baseline over DMSO control.
For in vitro CFTR membrane potential assays, in Calu-3 cells, values were normalized to the averaged baseline over averaged vehicle (DMSO) control of all biological replicates. SD was calculated using data from biological replicates (n = 4–8). An area under the curve (AUC), half-maximal concentration (EC50), […] (Emax), and baseline analysis was performed for each individual replicate then averaged together. The AUC analysis is an aggregate measure of sensitivity and maximal response, allowing for the observation of the total net responsiveness of the cells. The AUC analysis was done by normalizing the individual replicates to the bottom most value of the averaged vehicle control. In primary HBECs, six independent measurements were taken within a single Transwell insert. The value is the average of at least six measurements. These values were normalized to the averaged baseline over the averaged vehicle (DMSO) control. SD was calculated by treating the six measurements as independent, with additional technical replicates (n = 6–18). An AUC and max peak analysis were performed for each measurement, then averaged together. The max peak analysis was the max CFTR activity achieved during the drug addition step.
In order to compare the independent experiments performed, a fold-change analysis using individual AUC, EC50, and Emax, determined from their respective concentration–response curves, was performed and was normalized to the averaged DMSO vehicle control. A one-way ANOVA with subsequent post-hoc test or a paired t-test was performed. Statistical analysis was performed using GraphPad Prism 6.

G551D-CFTR = test system: G551D-CFTR; design: method as in PMID 21083385, PMID 22047557; conditions: G551D-CFTR variants; various doses and treatment durations; cited from earlier work
[1] = forskolin (FSK) curve with agent vs DMSO control
[2] = isoproterenol (ISO) curve with agent vs DMSO control

## CC(C)(C)c1cc(C(C)(C)C)c(NC(=O)c2c[nH]c3ccccc3c2=O)cc1O [VX-770, ivacaftor]
CFTR; FSK stimulation, comparison across independent experiments
  Fold-change of AUC relative to vehicle control: superior to either ABCC4 (MK-571) or PDE-4 (Roflumilast) inhibition alone
CFTR; [1]
  Baseline of concentration–response curve, CFTR activity: no significant changes
  EC50 of concentration–response curve, CFTR activity: increased the sensitivity
  Emax of concentration–response curve, CFTR activity: remained unchanged
CFTR; forskolin (FSK) curve with agent vs DMSO control, VX-770 1 μM, MK-571 1.8 μM, Ceefourin-1 4.8 μM, Roflumilast 1 μM, Rolipram 10 μM, IBMX 100 μM
  AUC of concentration–response curve, CFTR activity: significant increase
CFTR; [2]
  Baseline of concentration–response curve, CFTR activity: significant increase
  EC50 of concentration–response curve, CFTR activity: no changes
  Emax of concentration–response curve, CFTR activity: no changes
CFTR; isoproterenol (ISO) curve with agent vs DMSO control, same agent concentrations as E5
  AUC of concentration–response curve, CFTR activity: significant increase
G551D-CFTR
  predicted forced expiratory volume in 1 s (FEV1) from baseline: significant increases
